In US20060269579A1, “Compositions for treating osteoarthritis” (Musculoskeletal Research LLC, priority 2005, published 2006):

Legend:
[1] = test system: synovial lining cells; conditions: human
[2] = test system: effect of IL-1 on synovial cells; conditions: cited from earlier work
[3] = target: connexin 43 (Homo sapiens, UniProt P17302); conditions: Leybaert et al. 2003; cited from earlier work
Chain of connexin 43 (P17302 2-382 limits assumed): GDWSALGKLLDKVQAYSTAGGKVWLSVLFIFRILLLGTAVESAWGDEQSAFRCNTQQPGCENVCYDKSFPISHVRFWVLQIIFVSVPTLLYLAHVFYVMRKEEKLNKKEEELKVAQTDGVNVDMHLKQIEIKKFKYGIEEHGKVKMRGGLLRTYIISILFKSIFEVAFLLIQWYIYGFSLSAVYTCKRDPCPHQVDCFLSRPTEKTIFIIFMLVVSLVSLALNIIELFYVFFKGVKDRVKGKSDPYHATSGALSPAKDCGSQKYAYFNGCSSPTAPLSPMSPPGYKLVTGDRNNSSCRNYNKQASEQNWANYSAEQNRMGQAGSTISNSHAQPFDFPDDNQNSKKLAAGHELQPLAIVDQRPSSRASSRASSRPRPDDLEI

| Compound | concentration in compositions that must not be exceeded [1] | total dose that must not be exceeded [1] | interference with the effect of IL-1 on synovial cells [2] | block of connexin 43 [3] |
| --- | --- | --- | --- | --- |
| COC(=O)C1=C(C)NC(C)=C(C(=O)OC)C1c1ccccc1[N+](=O)[O-] [nifedipine] | ≤ 2.0 mg/mL | ≤ 2.0 mg |  |  |
| CCN(CC)CCNC(=O)c1ccc(N)cc1 [procainamide] | ≤ 2.0 mg/mL | ≤ 2.0 mg |  |  |
| COc1ccc(CCN(C)CCCC(C#N)(c2ccc(OC)c(OC)c2)C(C)C)cc1OC (stereo not drawn) [verapamil] | ≤ 2.0 mg/mL | ≤ 2.0 mg | capable of interfering with the effect of IL-1 on synovial cells |  |
| SRPTEKTIFII [undecapeptide, connexin 43 residue numbers 204-214, mimetic peptide] |  |  |  | able to block connexin 43 |
| VCYDKSFPISHVR [synthetic tridecapeptide, connexin 43 residue numbers 63-75, mimetic peptide] |  |  |  | able to block connexin 43 |
